The text below walks through data of patent US4192871A, “Chemical compounds” (Glaxo Laboratories Limited, priority 1976, dated 1980).

A short description of data set [1]: dissolution of the 11β-aminoester salts in aqueous acid (Table 5 and Examples 101, 225-229). The following applies: for concentration of aqueous solution of the citrate: citric acid monohydrate in water, filtered solution. The format is physicochemical. In outline:
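11β-Aminoester free base combined with 1 molar part of acid (citric acid as monohydrate) in water, with extra acid or prior ethanol co-evaporation in some methods. Solution made up to set weight, undissolved base collected and weighed to calculate dissolved amount. Solution pH measured.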

A short description of data set [2]: pH of the salt solutions. In kind it is physicochemical. The method in brief:
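Aminoester free base mixed with 1 molar part acid in water, stirred or shaken, with extra acid or ethanol evaporation in some methods, then made up with water to set weight. Undissolved base collected and weighed to calculate dissolved base; solution membrane-filtered and pH measured.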

[3] abbreviates: method D: 1 molar part acid, undissolved material weighed, WT. of solution 10 g, except Ex. 136: 8.95, 140: 9.52, 165 and 167: 10.1, 190 and 198: 9.8, 191: 8.9, 194: 6.6, 204: 10.09, 219: 10.6 g.
The mark [4] stands for this setting: aqueous solution of the salt, Table 5.
Where [5] appears, read: method B: further acid added, undissolved material weighed, WT. of solution 10 g, except Ex. 130 and 141: 9.2, 142: 9.23, 143, 144, 189 and 199: 9.8, 149: 10.6, 153: 7.9, 162 and 188: 9.5, 163: 68, 166: 10.4, 168: 10.7, 169: 10.9, 183: 8.05, 184 and 201: 9.83, 185: 7.1, 186: 9.3, 192: 10.07, 193: 6.4, 195: 6.8, 196: 7, 197: 7.2, 200: 10.1, 206: 15 g.
Setting [6] is: method C: ethanol evaporated, residue in water, undissolved material weighed, WT. of solution Ex. 118: 10, 120: 10.4, 148: 9.54, 152: 5.6, 154: 9.1, 155: 8.77, 156: 9.06, 157: 9.5, 158: 9.38, 159: 9.17, 179: 9.65, 180: 11.7, 182: 4.9, 202: 12.05, 213: 12, 214: 11.5, 215: 11.1, 216: 11.6, 217: 12.1 g.
The mark [7] stands for this setting: method A: clear solution, 1 molar part acid, made up with water to WT. of solution 10 g, except Ex. 121 and 150: 12, 123: 12.3, 124: 7.5, 129: 10.3, 135 and 139: 8.95, 164: 10.35, 170: 10.4, 181: 10.04, 187: 9.5, 210: 10.2, 221: 15 g.
Setting [8] is: aqueous solution of the citrate, filtered, 9.5-10 mg/ml.

Each structure is given as a SMILES string. Counter-ions that a name gives are not always drawn.

As for `CCCN(CCC)CC(=O)O[C@H]1C[C@]2(C)[C@@H](C(=O)COC(C)=O)CC[C@H]2[C@@H]2CC[C@H]3C[C@H](O)CC[C@]3(C)[C@H]21` [Example 209], in data set [1] (setting [3]), the Dissolved aminoester was 75 mg. In data set [2] (setting [4]), the pH was determined as 3.2.
For the molecule `CCCCN(C)CC(=O)O[C@H]1C[C@]2(C)[C@@H](C(C)=O)CC[C@H]2[C@@H]2CC[C@H]3C[C@H](O)[C@@H](Br)C[C@]3(C)[C@H]21` [Example 207], in data set [1] (setting [5]), the Dissolved aminoester was found to be 59 mg. Moreover, the pH in data set [2] (setting [4]) amounted to 2.6.
Taken in the same sequence, the figures for `CC(=O)[C@H]1CC[C@H]2[C@@H]3CC[C@H]4C[C@H](O)CC[C@]4(C)[C@H]3[C@@H](OC(=O)CN(C)[C@@H](C)CC(C)C)C[C@]12C` [Example 199] were 88 mg and 3.12.
In the case of `CC(=O)[C@H]1CC[C@H]2[C@@H]3CC[C@H]4C[C@H](O)CC[C@]4(C)[C@H]3[C@@H](OC(=O)CN(C)CC(C)(C)C)C[C@]12C` [Example 188], the Dissolved aminoester in data set [1] (setting [5]) was 31 mg. Also, in data set [2] (setting [4]), the pH is 2.58.
Turning to `CC(=O)[C@H]1CC[C@H]2[C@@H]3CC[C@H]4C[C@H](O)CC[C@]4(C)[C@H]3[C@@H](OC(=O)CN3CCCC3)C[C@]12C` [Example 155], the Dissolved aminoester in data set [1] (setting [6]) was determined as 87.7 mg. Further, the pH in data set [2] (setting [4]) worked out at 3.45.
Consider `CCCCN(CC)CC(=O)OC1CC2(C)C(C(C)=O)CCC2C2CCC3CC(O)C(C)CC3(C)C12` (stereo not drawn) [Example 174], for which the Dissolved aminoester in data set [1] (setting [5]) worked out at 100 mg. In addition, in data set [2] (setting [4]), the pH is 2.90.
Taken in the same sequence, the figures for `CC(=O)[C@H]1CC[C@H]2[C@@H]3CC[C@H]4C[C@H](O)CC[C@]4(C)[C@H]3[C@@H](OC(=O)CN3CCCCCCC3)C[C@]12C` [Example 128] were 68 mg and 2.65.
As for `CCCCN(CC)CC(=O)O[C@H]1C[C@]2(C)[C@@H](C(C)=O)CC[C@H]2[C@@H]2CC[C@H]3C[C@H](O)CC[C@]3(C)[C@H]21` [Example 220], the Dissolved aminoester in data set [1] (method E: as C with further acid, WT. of solution Ex. 160: 6.12, 161: 7.8, 203: 12.7, 212: 12.125, 220: 10 g) is 100 mg. The pH in data set [2] (setting [4]) came to 3.6.
For `CCCN(CCC)CC(=O)O[C@H]1C[C@]2(C)[C@@H](C(C)=O)CC[C@H]2[C@@H]2CC[C@H]3C[C@H](O)[C@@H](OCC)C[C@]3(C)[C@H]21` [Example 120], the Dissolved aminoester in data set [1] (setting [6]) stood at 87 mg. Also, the pH in data set [2] (setting [4]) was 3.5.
With `CCN(CC)CC(=O)OC1CC2(C)C(C(C)=O)CCC2C2CCC3CC(O)C(C)CC3(C)C12` (stereo not drawn) [Example 176], the Dissolved aminoester in data set [1] (setting [7]) turned out to be 103 mg. In data set [2] (setting [4]), the pH came to 3.7.
For the molecule `CCCCNCC(=O)O[C@H]1C[C@]2(C)[C@@H](C(C)=O)CC[C@H]2[C@@H]2CC[C@H]3C[C@H](O)CC[C@]3(C)[C@H]21` [Example 136], in data set [1] (setting [3]), the Dissolved aminoester was 83.5 mg. In addition, the pH in data set [2] (setting [4]) stood at 3.60.
On to `CC(=O)[C@H]1CC[C@H]2[C@@H]3CC[C@H]4C[C@H](O)CC[C@]4(C)[C@H]3[C@@H](OC(=O)CN(C)C3CC3)C[C@]12C` [Example 193], for which the Dissolved aminoester in data set [1] (setting [5]) turned out to be 23 mg. The pH in data set [2] (setting [4]) is 2.46.
`CC(=O)[C@H]1CC[C@H]2[C@@H]3CC[C@H]4C[C@H](O)CC[C@@H]4[C@H]3[C@@H](OC(=O)CN3CCC(C)CC3)C[C@]12C` [Example 229 citrate salt]: the “concentration of aqueous solution of the citrate” value in data set [1] was determined as 10000 µg/mL. Moreover, the pH in data set [2] (setting [8]) was 3.73.
Consider `CCN(CC)CC(=O)OC1CC2(C)C(C(C)=O)CCC2C2CCC3CC(O)C(OC(C)C)CC3(C)C12` (stereo not drawn) [Example 167], for which, in data set [1] (setting [3]), the Dissolved aminoester came to 93 mg. In addition, the pH in data set [2] (setting [4]) worked out at 3.65.
For `CC(=O)C1CCC2C3CCC4CC(O)CCC4(C)C3C(OC(=O)CNC(C)CC(C)C)CC12C` (stereo not drawn) [Example 162], the Dissolved aminoester in data set [1] (setting [5]) was 86 mg. In data set [2] (setting [4]), the pH turned out to be 3.0.
Taken in the same sequence, the figures for `COC(=O)[C@H]1CC[C@H]2[C@@H]3CC[C@H]4C[C@H](O)CC[C@]4(C)[C@H]3[C@@H](OC(=O)CN3CCCCC3)C[C@]12C` [Example 125] were 98 mg and 2.82.
As to `CCN(CC(=O)O[C@H]1C[C@]2(C)[C@@H](C(C)=O)CC[C@H]2[C@@H]2CC[C@H]3C[C@H](O)CC[C@]3(C)[C@H]21)C(C)CC(C)C` (stereo partly drawn) [Example 197], in data set [1] (setting [5]), the Dissolved aminoester is 63 mg. Also, in data set [2] (setting [4]), the pH is 2.99.
Turning to `CCN(CC)CC(=O)O[C@H]1C[C@]2(C)[C@@H](C(C)=O)CC[C@H]2[C@@H]2C[C@@H](C)[C@H]3C[C@H](O)CC[C@]3(C)[C@H]21` [Example 171], the Dissolved aminoester in data set [1] (setting [7]) is reported as 100 mg. For the same molecule, the pH in data set [2] (setting [4]) was determined as 3.4.
As for `CC(=O)C1CCC2C3CCC4CC(O)CCC4(C)C3C(OC(=O)CNC(C)CC(C)C)CC12C` (stereo not drawn) [Example 163], the Dissolved aminoester in data set [1] (setting [5]) is on record as 68 mg. The pH in data set [2] (setting [4]) was determined as 3.08.
Turning to `CCOC1CC2(C)C(CCC3C4CCC(C(C)=O)C4(C)CC(OC(=O)CNC(C)CC(C)C)C32)CC1O` (stereo not drawn) [Example 166], the Dissolved aminoester in data set [1] (setting [5]) is 104 mg. Further, the pH in data set [2] (setting [4]) turned out to be 3.28.
`CC(=O)[C@H]1CC[C@H]2[C@@H]3CC[C@H]4C[C@H](O)CC[C@]4(C)[C@H]3[C@@H](OC(=O)CN3CCCC(C)C3)C[C@]12C` (stereo partly drawn) [Example 157]: the Dissolved aminoester in data set [1] (setting [6]) came out at 95 mg. In addition, the pH in data set [2] (setting [4]) stood at 3.59.
As to `CCC(C)CN(C)CC(=O)O[C@H]1C[C@]2(C)[C@@H](C(C)=O)CC[C@H]2[C@@H]2CC[C@H]3C[C@H](O)CC[C@]3(C)[C@H]21` (stereo partly drawn) [Example 186], in data set [1] (setting [5]), the Dissolved aminoester was determined as 75 mg. Further, in data set [2] (setting [4]), the pH amounted to 2.85.
Consider `CCCCN(C)CC(=O)OC1CC2(C)C(CC(C)C2C(C)=O)C2CCC3CC(O)CCC3(C)C12` (stereo not drawn) [Example 177], for which the Dissolved aminoester in data set [1] (setting [7]) worked out at 100 mg. Besides, the pH in data set [2] (aqueous solution, pH adjusted with sodium hydroxide solution) turned out to be 4.0.
For the molecule `CCN(CC)CC(=O)O[C@H]1C[C@]2(C)[C@@H](C(C)=O)CC[C@H]2[C@@H]2CC[C@H]3C[C@H](O)[C@@H](SC#N)C[C@]3(C)[C@H]21` [Example 204], in data set [1] (setting [3]), the Dissolved aminoester amounted to 88.7 mg. Also, the pH in data set [2] (setting [4]) amounted to 3.5.
In the case of `CC(=O)[C@H]1CC[C@H]2[C@@H]3CC[C@H]4C[C@H](O)CC[C@]4(C)[C@H]3[C@@H](OC(=O)CNC(C)CCC(C)C)C[C@]12C` (stereo partly drawn) [Example 143], the Dissolved aminoester in data set [1] (setting [5]) turned out to be 86 mg. The pH in data set [2] (setting [4]) is 2.85.
In the case of `CC(=O)[C@H]1CC[C@H]2[C@@H]3CC[C@H]4C[C@H](O)CC[C@]4(C)[C@H]3[C@@H](OC(=O)CN(C)C(C)CCC(C)C)C[C@]12C` (stereo partly drawn) [Example 192], the Dissolved aminoester in data set [1] (setting [5]) is 100.7 mg. In data set [2] (setting [4]), the pH was determined as 3.00.
For `CC(=O)[C@H]1CC[C@H]2[C@@H]3CC[C@H]4C[C@H](O)CC[C@]4(C)[C@H]3[C@@H](OC(=O)CN(C)CCc3ccccc3)C[C@]12C` [Example 126] the same measures were 56 mg and 2.65.
Regarding `CCCCN(C)CC(=O)O[C@H]1C[C@]2(C)[C@@H](C(C)=O)CC[C@H]2[C@@H]2CC[C@H]3C[C@H](O)CC[C@@H]3[C@H]21` [Example 228 citrate salt], the “concentration of aqueous solution of the citrate” value in data set [1] amounted to 10000 µg/mL. For the same molecule, in data set [2] (setting [8]), the pH came out at 3.77.
Turning to `CCCN(CCC)CC(=O)O[C@H]1C[C@]2(C)[C@@H](C#N)CC[C@H]2[C@@H]2CC[C@H]3C[C@H](O)CC[C@]3(C)[C@H]21` [Example 206], the Dissolved aminoester in data set [1] (setting [5]) was found to be 84 mg. Further, the pH in data set [2] (setting [4]) is reported as 2.7.
`CC(=O)[C@H]1CC[C@H]2[C@@H]3CC[C@H]4C[C@H](O)CC[C@]4(C)[C@H]3[C@@H](OC(=O)CNC3CC3)C[C@]12C` [Example 145]: the Dissolved aminoester in data set [1] (setting [3]) is 93 mg. The pH in data set [2] (setting [4]) stood at 2.93.
